Measurements published in US9708336B2, “Metallo-beta-lactamase inhibitors” (priority 2014, dated 2017).
Like-named read-outs stand apart in the source and are kept apart here.

Legend:
NDM-1 = NDM-1 (Klebsiella pneumoniae, UniProt C7C422); test: biochemical; assay type: biochemical; conditions: NDM-1 enzyme, CCF2-FA fluorescence assay; read-out: NDM-1 IC50
[1] = system: Escherichia coli expressing NDM-1 (CLB30016); test: Antibiotic potentiation activity: synergistic concentration (MITC95) with imipenem, OD600 growth; assay type: cell-based; conditions: Escherichia coli expressing NDM-1 (CLB30016), 95% growth inhibition
Outline: (§1)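 Test compound was combined with 4 μg/ml imipenem (or optionally 1 μg/ml), or with no antibiotic, against saline-suspended colonies diluted 1:100 in 1.1×CAMHB. Strains were E. coli NDM-1, S. marcescens IMP-1 and K. pneumoniae VIM-1. Plates were incubated 22–24 h at 35 °C before absorbance (OD600) readout.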

[2] = system: Serratia marcescens expressing IMP-1 (CL5741); test: as above; assay type: cell-based; conditions: Serratia marcescens expressing IMP-1 (CL5741), 95% growth inhibition
Outline: as §1

[3] = system: Klebsiella pneumoniae expressing VIM-1 (IHMA599644); test: as above; assay type: cell-based; conditions: Klebsiella pneumoniae expressing VIM-1 (IHMA599644), 95% growth inhibition
Outline: as §1

IMP-1 = IMP-1 (Serratia marcescens, UniProt P52699); test: biochemical; assay type: biochemical; conditions: IMP-1 enzyme, CCF2-FA fluorescence assay; read-out: IMP-1 IC50
Sequence of IMP-1 (P52699 whole entry, looked up): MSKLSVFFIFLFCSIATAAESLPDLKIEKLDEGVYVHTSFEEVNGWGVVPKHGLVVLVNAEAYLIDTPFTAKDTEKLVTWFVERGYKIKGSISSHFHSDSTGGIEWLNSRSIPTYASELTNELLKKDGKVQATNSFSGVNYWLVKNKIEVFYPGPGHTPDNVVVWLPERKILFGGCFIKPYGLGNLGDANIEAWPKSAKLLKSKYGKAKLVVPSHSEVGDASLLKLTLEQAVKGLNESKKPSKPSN

VIM-1 = VIM-1 (Pseudomonas aeruginosa (strain ATCC 15692 / DSM 22644 / CIP 104116 / JCM 14847 / LMG 12228 / 1C / PRS 101 / PAO1), UniProt A0A0F7KYQ8); test: Enzyme activity: determination of IC50, fluorescence assay with CCF2-FA substrate (VIM-1); assay type: biochemical; conditions: CCF2-FA fluorescence assay
[4] = VIM-1 enzyme, read-out: VIM-1 IC50

Sequence of NDM-1 (C7C422 whole entry, looked up, species assumed): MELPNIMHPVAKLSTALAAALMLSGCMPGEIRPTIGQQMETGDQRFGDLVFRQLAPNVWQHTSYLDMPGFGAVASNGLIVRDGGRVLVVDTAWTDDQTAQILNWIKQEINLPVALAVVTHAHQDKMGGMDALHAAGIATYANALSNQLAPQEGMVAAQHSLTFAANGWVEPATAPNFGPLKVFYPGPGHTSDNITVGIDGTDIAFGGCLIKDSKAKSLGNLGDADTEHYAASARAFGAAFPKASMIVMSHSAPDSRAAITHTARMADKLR

SMILES | IC50 (NDM-1) | Escherichia coli MITC95 [1] | Serratia marcescens MITC95 [2] | Klebsiella pneumoniae MITC95 [3] | IC50 (IMP-1) | IC50 (VIM-1; [4]) | IC50 (VIM-1; VIM-1 IC50, VIM-1 enzyme)
Cc1ccc(-c2ccc(Br)c(S(N)(=O)=O)c2-c2nn[nH]n2)cc1 [Example 267, 4-bromo-4′-methyl-2-(2H-tetrazol-5-yl)-[1,1′-biphenyl]-3-sulfonamide] | 1.81 nM | 0.7383 µM | 0.2552 µM | 6.25 µM | 2 nM | 2.95 nM | –
Cc1ccc(-c2ccc(C(F)(F)F)c(S(N)(=O)=O)c2-c2nn[nH]n2)cc1 [Example 268, 4′-methyl-2-(2H-tetrazol-5-yl)-4-(trifluoromethyl)-[1,1′-biphenyl]-3-sulfonamide] | 2.01 nM | 2.229 µM | 0.25 µM | 9.375 µM | 1.64 nM | 0.898 nM | –
CS(=O)(=O)Nc1ccc(-c2ccc(Br)c(S(N)(=O)=O)c2-c2nn[nH]n2)cc1 [Example 270, 4-bromo-4′-(methylsulfonamido)-2-(2H-tetrazol-5-yl)-[1,1′-biphenyl]-3-sulfonamide] | 2.56 nM | 1.563 µM | 0.3906 µM | 6.25 µM | 4.86 nM | 1.68 nM | –
NS(=O)(=O)c1c(Br)ccc(-c2ccc3c(c2)CNC3)c1-c1nn[nH]n1 [Example 272, 6-bromo-3-(isoindolin-5-yl)-2-(2H-tetrazol-5-yl)benzenesulfonamide] | 7.17 nM | 0.7813 µM | 1.563 µM | 0.7813 µM | 49 nM | 5.54 nM | –
NS(=O)(=O)c1c(C(F)(F)F)ccc(-c2ccnc3ccccc23)c1-c1nn[nH]n1 [Example 273, 3-(quinolin-4-yl)-2-(2H-tetrazol-5-yl)-6-(trifluoromethyl)benzenesulfonamide] | 0.581 nM | 4.688 µM | 0.3906 µM | 6.25 µM | 3.21 nM | 0.165 nM | –
CS(=O)(=O)Nc1ccc(-c2ccc(C(F)(F)F)c(S(N)(=O)=O)c2-c2nn[nH]n2)cc1 [Example 274, 4′-(methylsulfonamido)-2-(2H-tetrazol-5-yl)-4-(trifluoromethyl)-[1,1′-biphenyl]-3-sulfonamide] | 0.637 nM | 0.7813 µM | 0.1953 µM | 4.688 µM | 0.637 nM | 0.637 nM | –
NS(=O)(=O)c1c(C2CC2)ccc(-c2ccnc3ccccc23)c1-c1nn[nH]n1 [Example 275, 6-cyclopropyl-3-(quinolin-4-yl)-2-(2H-tetrazol-5-yl)benzenesulfonamide] | 3.68 nM | 3.125 µM | 0.7813 µM | 9.375 µM | 6.7 nM | 0.637 nM | –
NS(=O)(=O)c1c(Cl)ccc(-c2ccc(C3CCNCC3)cc2)c1-c1nn[nH]n1 [Example 276, 4-chloro-4′-(piperidin-4-yl)-2-(2H-tetrazol-5-yl)-[1,1′-biphenyl]-3-sulfonamide] | 5.51 nM | 0.7813 µM | 0.3906 µM | 1.563 µM | 8.75 nM | – | 3.38 nM
NCc1nccc2cc(-c3cccc(S(N)(=O)=O)c3-c3nn[nH]n3)ccc12 [Example 280, 3-(1-(aminomethyl)isoquinolin-6-yl)-2-(2H-tetrazol-5-yl)benzenesulfonamide] | 1.44 nM | 0.5859 µM | 6.25 µM | 3.125 µM | 15.8 nM | – | 20.4 nM
NC(=O)c1nccc2cc(-c3cccc(S(N)(=O)=O)c3-c3nn[nH]n3)ccc12 [Example 281, 6-(3-sulfamoyl-2-(2H-tetrazol-5-yl)phenyl)isoquinoline-1-carboxamide] | 0.342 nM | 0.7813 µM | 3.125 µM | 12.5 µM | 42.9 nM | 12.2 nM | –
Cl.Cl.NC1(c2ccc(-c3cccc(S(N)(=O)=O)c3-c3nn[nH]n3)cc2)CCNCC1 [Example 283, 4′-(4-aminopiperidin-4-yl)-2-(2H-tetrazol-5-yl)-[1,1′-biphenyl]-3-sulfonamide dihydrochloride] | 33 nM | 0.5859 µM | 2.344 µM | 12.5 µM | 500 nM | 308 nM | –
NS(=O)(=O)c1cccc(-c2ccc(C3(O)CCNC3)cc2)c1-c1nn[nH]n1 (stereo not drawn) [Example 284, 4′-(3-hydroxypyrrolidin-3-yl)-2-(2H-tetrazol-5-yl)-[1,1′-biphenyl]-3-sulfonamide] | 12.7 nM | 0.7813 µM | 1.563 µM | 4.688 µM | 102 nM | 55.5 nM | –
NS(=O)(=O)c1cccc(-c2ccc(C3=CCNC3)cc2)c1-c1nn[nH]n1 [Example 285, 4′-(2,5-dihydro-1H-pyrrol-3-yl)-2-(2H-tetrazol-5-yl)-[1,1′-biphenyl]-3-sulfonamide] | 2.83 nM | 0.3906 µM | 0.7813 µM | 3.125 µM | 25.1 nM | 18 nM | –
NCc1ccc2cc(-c3cccc(S(N)(=O)=O)c3-c3nn[nH]n3)ccc2n1 [Example 286, 3-(2-(aminomethyl)quinolin-6-yl)-2-(2H-tetrazol-5-yl)benzenesulfonamide] | 6.14 nM | 0.7813 µM | 3.125 µM | 3.125 µM | 204 nM | 12.7 nM | –
NS(=O)(=O)c1cccc(-c2ccc3nc(C(=O)O)ccc3c2)c1-c1nn[nH]n1 [Example 287, 6-(3-sulfamoyl-2-(2H-tetrazol-5-yl)phenyl)quinoline-2-carboxylic acid] | 0.734 nM | 9.375 µM | 18.75 µM | 37.5 µM | 159 nM | 34 nM | –
NC(=O)c1ccc2cc(-c3cccc(S(N)(=O)=O)c3-c3nn[nH]n3)ccc2n1 [Example 288, 6-(3-sulfamoyl-2-(2H-tetrazol-5-yl)phenyl)quinoline-2-carboxamide] | 1.31 nM | 1.563 µM | 9.375 µM | 75 µM | 88.9 nM | 9.78 nM | –
NS(=O)(=O)c1cccc(-c2ccc(OC3CCNCC3)cc2)c1-c1nnn[nH]1 [Example 316, 4′-(piperidin-4-yloxy)-2-(1H-tetrazol-5-yl)-[1,1′-biphenyl]-3-sulfonamide] | 5.11 nM | 0.9766 µM | 2.344 µM | 12.5 µM | 69.3 nM | 67.7 nM | –
NS(=O)(=O)c1cccc(-c2ccc(CNCCN3CCCC3)cc2)c1-c1nn[nH]n1 [Example 328, 4′-(((2-(pyrrolidin-1-yl)ethyl)amino)methyl)-2-(2H-tetrazol-5-yl)-[1,1′-biphenyl]-3-sulfonamide] | 20.4 nM | 1.563 µM | 6.25 µM | 125 µM | 325 nM | 473 nM | –
CN1CCN(Cc2ccc(-c3cccc(S(N)(=O)=O)c3-c3nnn[nH]3)cc2)CC1 [Example 329, 4′-((4-methylpiperazin-1-yl)methyl)-2-(1H-tetrazol-5-yl)-[1,1′-biphenyl]-3-sulfonamide] | 8.26 nM | 0.7813 µM | 1.563 µM | 200 µM | 87.1 nM | 683 nM | –
NS(=O)(=O)c1cccc(-c2ccc(CNCC(=O)NO)cc2)c1-c1nnn[nH]1 [Example 330, N-hydroxy-2-(((3′-sulfamoyl-2′-(1H-tetrazol-5-yl)-[1,1′-biphenyl]-4-yl)methyl)amino)acetamide] | 12.5 nM | 1.563 µM | 4.688 µM | 50 µM | 118 nM | 401 nM | –
CN1CC(NCc2ccc(-c3cccc(S(N)(=O)=O)c3-c3nnn[nH]3)cc2)C1 [Example 331, 4′-(((1-methylazetidin-3-yl)amino)methyl)-2-(1H-tetrazol-5-yl)-[1,1′-biphenyl]-3-sulfonamide] | 30.6 nM | 1.172 µM | 6.25 µM | 150 µM | 392 nM | 1190 nM | –
